The test has as its system 252836-082-R-J2-PDC tumor spheroids, viability. Nature of the test: Anticancer human tumor 252836-082-R-J2-PDC patient-derived head and neck squamous cell carcinoma cell line growth inhibition [PI3K]. The note with it: spheroids with HUVEC and MSC; for viability, T/C: stronger effect = lower value. The text has this: Combinatorial screen of targeted agents with the PI3K inhibitors inavolisib, alpelisib, duvelisib, and copanlisib in multi-cell type tumor spheroids
A high-throughput screen of multi-cell type tumor spheroids was designed to identify active combinations of targeted small molecules and PI3K pathway inhibitors. Complex spheroids include a stromal component modeled by human endothelial cells (HUVEC) and fibroblasts modeled by human mesenchymal stem cells (MSCs). The concentration ranges selected for each drug and investigational agent were based upon clinically achievable concentrations if the clinical Cmax of the agent was known.
Compounds. The drugs and investigational agents: inavolisib (NSC800729), alpelisib (NSC765974), duvelisib (NSC772469), copanlisib (NSC816437), ipatasertib (NSC767898), afuresertib (NSC778305), talazoparib (NSC767125), sapanisertib (NSC764658), selumetinib (NSC741078), tovorafenib (DAY101, NSC766906), vemurafenib (NSC761431), ravoxertinib (NSC781343), sotorasib (NSC818433), MRTX1133 (NSC 836407), abemaciclib (NSC 768073), palbociclib (NSC758247), venetoclax (NSC 766270), SY5609 (NSC837396), enzalutamide (NSC755605), and darolutamide (NSC825331), were obtained from the National Cancer Institute (NCI) Developmental Therapeutics Program Chemical Repository. The FDA-approved anticancer drug set is available from the NCI Developmental Therapeutics Program. […] The stock solutions were prepared in dimethyl sulfoxide (DMSO, Sigma-Aldrich, St. Louis, MO, cat. D2650) at 800-fold the tested concentration and stored at -70 degrees C prior to their use. All drugs and investigational agents were tested over a range starting from a high concentration at or near the clinical Cmax and decreasing in half-log increments. If the clinical Cmax for an agent had not been determined, the highest concentration tested was 10 microM.
Cell Culture. All cells were maintained in an incubator at 37 degrees C and 5% CO2 with 95% humidity. The PDC lines were cultured according to standard operating procedures established by the NCI PDMR (https://pdmr.cancer.gov/sops/default.htm). All PDCs were thawed and cultured in Matrigel-coated flasks prepared with a working solution of 1X Ham's F-12 nutrient mix, without supplementation (Invitrogen, Waltham, MA, cat. 11765054), 100 U/mL penicillin-streptomycin (Invitrogen, cat. 15140122), and 2.5% Matrigel (Corning Inc., Corning, NY, cat. 354248) for the first three passages. The 354836-022-R-J1-PDC, 475296-252-R-J1-PDC, and 997726-040-R-J2-PDC lines were cultured in 6A media, which includes advanced DMEM/F-12 (Thermo Fisher Scientific, cat. 12634028), 10 mM HEPES (Thermo Fisher Scientific, cat. 15630080), 1X GlutaMAX supplement (Thermo Fisher Scientific, cat. 35050061), 0.1 mg/mL primocin (InvivoGen, San Diego, CA, cat. ant-pm-2), 10% defined fetal bovine serum, heat inactivated (HyClone Laboratories Inc., Logan, UT, cat. SH30070.03HI), 50% L-WRN conditioned media (ATCC, cat. CRL-3276), 1.25 mM N-Acetyl-L-cysteine (Sigma-Aldrich, cat. A9165), 10 mM nicotinamide (Sigma-Aldrich, cat. N0636), 1X B-27 supplement (Thermo Fisher Scientific, cat. 17504044), 1X N-2 supplement (Thermo Fisher Scientific, cat. 17502048), and 10 microM Y-27632 dihydrochloride (Tocris Bioscience, Bristol, United Kingdom, cat. 1254). The 624824-186-R-J2-PDC line was cultured in 6C/Colon 1B media, which includes all 6A media components plus 50 ng/mL human EGF recombinant protein (Thermo Fisher Scientific, cat. PHG0311). […]

Data on 3 compounds can be found in PubChem BioAssay AID1963985 (Molecular Pharmacology Branch, DTP, NCI, 2024).

SMILES strings stand for the structures. Values joined by “and” are separate entries in the source; they are usually repeats but may differ in a detail not shown here. Equal values may be shown once.

One may read the IC50 as the point on the concentration scale where inhibition reaches its midpoint. A word on the viability, T/C: it is the result in the treated group divided by that in the control group, in per cent.
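Further: spheroids exposed to agents for seven days before readout.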
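Wherever viability, T/C is given: percent of vehicle DMSO control viability so 100% = untreated growth.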

For the compound `CCCS(=O)(=O)Nc1ccc(F)c(C(=O)c2c[nH]c3ncc(-c4ccc(Cl)cc4)cc23)c1F` + Cc1nc(NC(=O)N2CCCC2C(N)=O)sc1-c1ccnc(C(C)(C)C(F)(F)F)c1, the IC50 is 5.16 µM (curve of first compound, second compound 0.0316 µM); 4.74 µM (curve of first compound, second compound 0.1 µM); 4.21 µM (curve of first compound, second compound 0.316 µM); 3.49 µM (curve of first compound, second compound 1 µM); 0.0316 µM (curve of first compound, second compound 3.16 µM); less than 0.0316 µM (curve of first compound, second compound 10 µM). The viability, T/C was 94.2% (second compound 0.0316 µM, first compound 0.0316 µM); 95.6% (second compound 0.0316 µM, first compound 0.1 µM); 79.9% (second compound 0.0316 µM, first compound 0.316 µM); 84.7% (second compound 0.0316 µM, first compound 1 µM); 83.7% (second compound 0.0316 µM, first compound 3.16 µM); 4.52% (second compound 0.0316 µM, first compound 10 µM). Further, the viability, T/C is 84.3% (second compound 0.1 µM, first compound 0.0316 µM); 84.3% (second compound 0.1 µM, first compound 0.1 µM); 86.2% (second compound 0.1 µM, first compound 0.316 µM); 96.3% (second compound 0.1 µM, first compound 1 µM); 75.1% (second compound 0.1 µM, first compound 3.16 µM); 3.91% (second compound 0.1 µM, first compound 10 µM). Moreover, the viability, T/C runs as follows: (second compound 0.316 µM, first compound 0.0316 µM) 73.2%; (second compound 0.316 µM, first compound 0.1 µM) 62%; (second compound 0.316 µM, first compound 0.316 µM) 80.9%; (second compound 0.316 µM, first compound 1 µM) 78.2%; (second compound 0.316 µM, first compound 3.16 µM) 63.4%; (second compound 0.316 µM, first compound 10 µM) 5.17%. Further, the viability, T/C was 58.1% (second compound 1 µM, first compound 0.0316 µM); 52.7% (second compound 1 µM, first compound 0.1 µM); 64.8% (second compound 1 µM, first compound 0.316 µM); 57.5% (second compound 1 µM, first compound 1 µM); 54.2% (second compound 1 µM, first compound 3.16 µM); 4.7% (second compound 1 µM, first compound 10 µM). The viability, T/C runs as follows: (second compound 3.16 µM, first compound 0.0316 µM) 52.2%; (second compound 3.16 µM, first compound 0.1 µM) 38.9%; (second compound 3.16 µM, first compound 0.316 µM) 50.9%; (second compound 3.16 µM, first compound 1 µM) 54.1%; (second compound 3.16 µM, first compound 3.16 µM) 37.2%; (second compound 3.16 µM, first compound 10 µM) 7.19%. Also, the viability, T/C (second compound 10 µM, first compound 0.0316 µM) is 39.7%; the viability, T/C (second compound 10 µM, first compound 0.1 µM) is 35.7%; the viability, T/C (second compound 10 µM, first compound 0.316 µM) is 43.7%; the viability, T/C (second compound 10 µM, first compound 1 µM) is 37.8%; the viability, T/C (second compound 10 µM, first compound 3.16 µM) was 21.2%; the viability, T/C (second compound 10 µM, first compound 10 µM) is 4.33%.

As to `CC(C)NCC(C(=O)N1CCN(c2ncnc3c2C(C)CC3O)CC1)c1ccc(Cl)cc1` (stereo not given), the viability, T/C was 84.2% [middle of 4 runs] (compound 0.0316 µM); 96.8% [middle of 4 runs] (compound 0.1 µM); 87.8% (2×) and 61.1% and 70.6% (compound 0.316 µM); 45.1% [middle of 4 runs] (compound 1 µM); 31.7% [middle of 4 runs] (compound 3.16 µM); 19.7% [middle of 4 runs] (compound 10 µM). Moreover, the IC50 (curve of compound) was 850 nM [middle of 4 runs].

In the case of `CCN1CCN(Cc2ccc(Nc3ncc(F)c(-c4cc(F)c5nc(C)n(C(C)C)c5c4)n3)nc2)CC1`, the viability, T/C is 99.2% [middle of 4 runs] (compound 0.00316 µM); 91.3% [middle of 4 runs] (compound 0.01 µM); 94.5% [middle of 4 runs] (compound 0.0316 µM); 95.2% [middle of 4 runs] (compound 0.1 µM); 91.5% [middle of 4 runs] (compound 0.316 µM). Also, the IC50 (curve of compound) is more than 1 µM.
